US11110070B2 (priority 2015, dated 2021)
“Also recorded” adds a separate entry of the source. Where a name gives a salt, the structure may show the parent alone.

Columns and labels:
[1] = Body weight in CORT model; format: in vivo, mice; conditions: ketamine 90 mg kg^−1 single injection or fluoxetine 18 mg kg^−1 for 3 weeks, before CORT
129S6/SvEvTac mice [2] = test: Fighting behavior during SD bouts; format: in vivo; conditions: SD-Flx vs SD-Veh
Method: (§1) Adult aggressor CD-1 male mice were single-housed in Macrolon® polycarbonate resin cages (15.25 in×7.8 in×9.5 in) (Animal Care Systems, Inc., Centennial, Colo.). Male 129S6/SvEvTac mice (9 weeks of age) were subsequently placed into the resident. CD-1 mouse's cage. Three antagonistic encounters were allowed between the CD-1 mouse and the intruder. Each of these encounters typically lasted less than 5 min. Following the encounters, mice were separated by a polished stainless steel cage divider (Animal Care Systems, Inc., Centennial, Colo., P/N C79171), which allowed for olfactory and auditory communication, but limited visual or tactile contact. The partition was removed daily for 2 weeks and 3 antagonistic encounters were allowed between the mice each day. This procedure consistently yielded a submissive phenotype in the experimental intruder mice. Control (Ctrl) mice were group housed 4 to 5 per cage in Macrolon® polycarbonate resin cages without dividers.

C57BL/6NTac mice [3] = test: Tail suspension test (TST) after CORT; format: in vivo; conditions: after 4 weeks of CORT; ketamine 10 mg kg^−1 one injection or fluoxetine 18 mg kg^−1 per day; both time points
Method: Experiment 6 (Post-ketamine and post-fluoxetine in CORT); In C57BL/6NTac mice. vehicle or CORT was administered for 4 weeks in the drinking water. While administration with 0.45% β-CD or CORT continued, mice were injected with saline or ketamine (10 mg kg^−1), or were administered vehicle or chronic fluoxetine (18 mg kg^−1 per day in the drinking water).
The TST was administered as previously described (A2). Briefly, animals were suspended for 6 min and immobility during this period was assessed using an automated TST apparatus (Bioseb, Vitrolles, France). A specific strain gauge linked to a computer quantifies the time spent by each mouse trying to escape.

C57BL/6NTac mice [4] = test: NSF in CORT model; format: in vivo; conditions: treatment after 4 weeks of CORT; 14 days after the start of treatment
Method: Experiment 5 (Pre-ketamine and pre-fluoxetine corticosterone (CORT)): C57BL16NTac mice were injected with ketamine (10, 30, 90 mg kg^−1, i.p.) 1 week before the start of CORT, or administered fluoxetine (18 mg kg^−1 per day) in the drinking water for 3 weeks before the start of CORT. Ketamine was purchased from Merial (100 mg/ml stock solution). Fluoxetine hydrochloride (160 μg/mL, equivalent to 18 mg kg^−1 per day in the drinking water) was purchased from Anawa Trading (Zurich, Switzerland) and dissolved in 0.45% hydroxypropyl-β-cyclodextrin (β-CD) (Sigma-Aldrich, Saint-Quentin Fallavier, France) solution. Following ketamine or fluoxetine treatment, CORT was administered for 3 weeks in the drinking water. CORT (4-pregnen-11b-DIOL-3 20-DIONE 21-hemisuccinate) (35 μg/ml) from. Sigma Aldrich (Saint-Quentin Fallavier, France) was dissolved in vehicle (0.45% β-CD). Control animals received vehicle (0.45% β-CD) throughout the duration of the experiment. […]
Testing was performed as previously described (A13). […] The latency of the mice to begin eating was recorded. Immediately after the latency was recorded, the food pellet was removed from the arena. The mice were then placed into a cage and the amount of food consumed in 5 min was measured (home cage consumption), followed by an assessment of post-restriction weight. […]

129S6/SvEvTac mice [5] = test: Other behaviors following fluoxetine treatment before SD; format: in vivo; conditions: fluoxetine 3 weeks before SD
Method: (§2) Experiment 3 (Pre-fluoxetine in SD): At 6 weeks of age, fluoxetine hydrochloride (Fix) (BioTrend Chemicals AG, B6197) was administered in the drinking water (18 mg kg^−1/day) for 3 weeks before the start of SD. Starting at 9 weeks of age, SD was then administered for 2 weeks without vehicle or Flx in the drinking water.

C57BL/6NTac mice [6] = test: EPM in CORT model; format: in vivo; conditions: ketamine or fluoxetine before CORT
Method: Experiment 5 (Pre-ketamine and pre-fluoxetine corticosterone (CORT)): C57BL16NTac mice were injected with ketamine (10, 30, 90 mg kg^−1, i.p.) 1 week before the start of CORT, or administered fluoxetine (18 mg kg^−1 per day) in the drinking water for 3 weeks before the start of CORT. Ketamine was purchased from Merial (100 mg/ml stock solution). Fluoxetine hydrochloride (160 μg/mL, equivalent to 18 mg kg^−1 per day in the drinking water) was purchased from Anawa Trading (Zurich, Switzerland) and dissolved in 0.45% hydroxypropyl-β-cyclodextrin (β-CD) (Sigma-Aldrich, Saint-Quentin Fallavier, France) solution. Following ketamine or fluoxetine treatment, CORT was administered for 3 weeks in the drinking water. CORT (4-pregnen-11b-DIOL-3 20-DIONE 21-hemisuccinate) (35 μg/ml) from. Sigma Aldrich (Saint-Quentin Fallavier, France) was dissolved in vehicle (0.45% β-CD). Control animals received vehicle (0.45% β-CD) throughout the duration of the experiment.
Testing was performed as previously described (A14). […] For the 12956/SvEv experiments, videos were scored using behavioral tracking software (TopScan, CleverSys, Reston, Va.). For the C57BL/6Ntac experiments, all parameters were measured using a videotracker (EPM3C. Bioseb, Vitrolles, France).

129S6/SvEvTac mice [7] = test: Forced swim test (FST) in social defeat (SD) model; format: in vivo
Method: Experiment 1 (Pre-ketamine in social defeat (SD)): At 8 weeks of age, a single injection of saline (0.9% NaCl) or ketamine (K) (10, 30, or 90 mg kg^−1) (Ketaset III, Ketamine HCl, Fort Dodge Animal Health, Forth Dodge, Iowa) was administered. Ketamine was prepared in physiological saline and all injections were administered intraperitoneally (i.p.) in volumes of 0.1 cc per […]. […] At 9 weeks of age, 1 week following this injection, SD was started.
24 h after the last bout of SD, a single injection of saline or ketamine (30 mg kg^−1) was administered (mice were 11 weeks old). The forced swim test (PST) was administered 2 h following the injection.
as §2, §1
The FST was administered as previously described (A11). Briefly, mice were placed into clear plastic buckets 20 cm in diameter and 23 cm deep filled ⅔ of the way with 22° C. water. Mice were videotaped, from the side for 6 min and were exposed to the swim test on 2 consecutive days. For the SI) experiments, scoring was performed using an automated Viewpoint Videotrack software package (http://www.viewpoint.fr/en/a/anxiety-and-depression). For the CORT experiments, automated scoring was done using the automated X'PERT EST software suite (Bioseb, Vitrolles, France). The dependent variable was immobility.

C57BL/6NTac mice [8] = test: FST in chronic corticosterone (CORT) model; format: in vivo; conditions: ketamine 90 mg kg^−1 or fluoxetine 18 mg kg^−1/day, before 3 weeks of CORT; hydrochloride
129S6/SvEv mice = test: FST after prophylactic ketamine or ketamine metabolites (FIG. 15); format: in vivo; conditions: at 10 and 30 mg/kg

Structure (SMILES) | CORT-induced increase in body weight [1] | behavior during SD bouts (129S6/SvEvTac mice [2]) | immobility time in the TST (C57BL/6NTac mice [3]) | latency to feed in NSF (C57BL/6NTac mice [4]) | anxiety or cognition (129S6/SvEvTac mice [5]) | time in the closed arms of EPM (anxiety-like phenotype) (C57BL/6NTac mice [6]) | immobility time, day 2 of FST (129S6/SvEvTac mice [7]; Ctrl mice, fluoxetine 18 mg kg^−1 for 3 weeks, vs Ctrl-Veh) | immobility time, day 2 of FST (129S6/SvEvTac mice [7]; SD mice, fluoxetine 18 mg kg^−1 for 3 weeks before SD) | immobility time on day 2 in the FST (C57BL/6NTac mice [8]) | prophylactic efficacy (behavioral despair, FST) (129S6/SvEv mice)
CNCCC(Oc1ccc(C(F)(F)F)cc1)c1ccccc1 (stereo not shown) [fluoxetine, fluoxetine hydrochloride] | prevented the CORT-induced increase in body weight | do not display differences during SD bouts | decreased immobility time in the TST | decreased the latency to feed | did not significantly alter anxiety or cognition | Neither ketamine nor fluoxetine robustly protected | equal levels of immobility time | did not improve immobility time | decreased immobility time; also recorded: significantly reduced immobility | –
N[C@@]1(c2ccccc2Cl)CCC[C@@H](O)C1=O [HNK, (2R,6R)-hydroxynorketamine] | – | – | – | – | – | – | – | – | – | efficacious as prophylactics
